Measured values reported in paper PMC5068966, “Lysosomal membrane glycoproteins bind cholesterol and contribute to lysosomal cholesterol export” (eLife, 2016).
pKd: −log10 of the molar value.

Experiments:
LAMP2 [1] = molecular target: T1, LAMP2 (Homo sapiens, UniProt P13473); test: competition with […] 3H-cholesterol on purified protein; assay type: binding; set-up: soluble lumenal domain, human LAMP2 (1–375)
LAMP2 [2] = molecular target: T1, LAMP2; test: single-concentration ([…]) competition with 3H-cholesterol on purified protein; assay type: binding; set-up: soluble lumenal domain, human LAMP2 (1–375)
LAMP2 [3] = molecular target: T1, LAMP2; test: direct 3H-25-hydroxycholesterol binding to purified protein; competition with 3H-cholesterol; set-up: soluble lumenal domain, human LAMP2 (1–375)
LAMP2 [4] = molecular target: T1, LAMP2; test: 3H-cholesterol binding to purified His-tagged protein on Ni-NTA, with cold competition; bound cholesterol also identified by TLC and LC/MS; set-up: soluble lumenal domain, human LAMP2 (1–375); also domain 1 (1–231) and domain 2
LAMP1 = molecular target: T2, LAMP1 (Homo sapiens, UniProt P11279); test: 3H-cholesterol binding to purified His-tagged protein on Ni-NTA
T2 construct: soluble lumenal domain, human LAMP1(1–382)
T2 sequence (P11279 1-382): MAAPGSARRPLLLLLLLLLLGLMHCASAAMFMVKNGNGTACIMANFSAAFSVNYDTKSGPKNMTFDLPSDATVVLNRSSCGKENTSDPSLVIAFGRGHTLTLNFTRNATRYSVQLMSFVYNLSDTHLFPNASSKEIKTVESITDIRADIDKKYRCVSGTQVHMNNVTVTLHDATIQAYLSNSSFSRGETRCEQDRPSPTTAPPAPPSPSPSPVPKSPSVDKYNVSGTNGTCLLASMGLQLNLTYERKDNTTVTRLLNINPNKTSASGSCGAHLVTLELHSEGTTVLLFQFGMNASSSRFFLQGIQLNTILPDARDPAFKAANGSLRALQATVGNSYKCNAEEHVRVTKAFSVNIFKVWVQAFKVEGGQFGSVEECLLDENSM

[5] = molecular target: AF647 labeled His6-NPC1 N-terminal domain (UniProt O15118); test: MST; 6 nM AF647 labelled protein, 16 two-fold dilutions of soluble LAMP2; 50 mM MES pH 5.5, 150 mM NaCl, 0.004% NP-40; in 1 µM cholesterol; fluorescence read for NPC1 N-terminal domain, thermophoresis for RNase B
AF647 labeled-NPC2 = AF647 labeled-NPC2 (UniProt P61916); test: MST; 6 nM AF647 labelled NPC2, 16 two-fold dilutions of soluble LAMP2 or RNase B; 50 mM MES pH 5.5, 150 mM NaCl, 0.004% NP-40; in 1 µM cholesterol sulfate
Sequence of AF647 labeled-NPC2 (P61916 20-151): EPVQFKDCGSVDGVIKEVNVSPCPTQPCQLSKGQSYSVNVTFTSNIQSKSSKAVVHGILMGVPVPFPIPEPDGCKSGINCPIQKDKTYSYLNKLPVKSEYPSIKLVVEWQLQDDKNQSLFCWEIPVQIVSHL

T1 sequence (P13473 29-375): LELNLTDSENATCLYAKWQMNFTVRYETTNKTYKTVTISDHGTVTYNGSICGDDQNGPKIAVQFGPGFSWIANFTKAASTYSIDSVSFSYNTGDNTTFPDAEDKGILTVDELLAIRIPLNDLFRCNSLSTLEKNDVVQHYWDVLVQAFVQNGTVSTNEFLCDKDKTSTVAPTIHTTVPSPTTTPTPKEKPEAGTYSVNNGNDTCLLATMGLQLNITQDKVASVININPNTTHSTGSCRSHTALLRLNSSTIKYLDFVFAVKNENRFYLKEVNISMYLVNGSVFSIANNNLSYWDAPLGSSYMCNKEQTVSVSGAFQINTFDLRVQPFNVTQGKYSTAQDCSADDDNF
Sequence of AF647 labeled His6-NPC1 N-terminal domain (O15118 whole entry, the tested form may be a part): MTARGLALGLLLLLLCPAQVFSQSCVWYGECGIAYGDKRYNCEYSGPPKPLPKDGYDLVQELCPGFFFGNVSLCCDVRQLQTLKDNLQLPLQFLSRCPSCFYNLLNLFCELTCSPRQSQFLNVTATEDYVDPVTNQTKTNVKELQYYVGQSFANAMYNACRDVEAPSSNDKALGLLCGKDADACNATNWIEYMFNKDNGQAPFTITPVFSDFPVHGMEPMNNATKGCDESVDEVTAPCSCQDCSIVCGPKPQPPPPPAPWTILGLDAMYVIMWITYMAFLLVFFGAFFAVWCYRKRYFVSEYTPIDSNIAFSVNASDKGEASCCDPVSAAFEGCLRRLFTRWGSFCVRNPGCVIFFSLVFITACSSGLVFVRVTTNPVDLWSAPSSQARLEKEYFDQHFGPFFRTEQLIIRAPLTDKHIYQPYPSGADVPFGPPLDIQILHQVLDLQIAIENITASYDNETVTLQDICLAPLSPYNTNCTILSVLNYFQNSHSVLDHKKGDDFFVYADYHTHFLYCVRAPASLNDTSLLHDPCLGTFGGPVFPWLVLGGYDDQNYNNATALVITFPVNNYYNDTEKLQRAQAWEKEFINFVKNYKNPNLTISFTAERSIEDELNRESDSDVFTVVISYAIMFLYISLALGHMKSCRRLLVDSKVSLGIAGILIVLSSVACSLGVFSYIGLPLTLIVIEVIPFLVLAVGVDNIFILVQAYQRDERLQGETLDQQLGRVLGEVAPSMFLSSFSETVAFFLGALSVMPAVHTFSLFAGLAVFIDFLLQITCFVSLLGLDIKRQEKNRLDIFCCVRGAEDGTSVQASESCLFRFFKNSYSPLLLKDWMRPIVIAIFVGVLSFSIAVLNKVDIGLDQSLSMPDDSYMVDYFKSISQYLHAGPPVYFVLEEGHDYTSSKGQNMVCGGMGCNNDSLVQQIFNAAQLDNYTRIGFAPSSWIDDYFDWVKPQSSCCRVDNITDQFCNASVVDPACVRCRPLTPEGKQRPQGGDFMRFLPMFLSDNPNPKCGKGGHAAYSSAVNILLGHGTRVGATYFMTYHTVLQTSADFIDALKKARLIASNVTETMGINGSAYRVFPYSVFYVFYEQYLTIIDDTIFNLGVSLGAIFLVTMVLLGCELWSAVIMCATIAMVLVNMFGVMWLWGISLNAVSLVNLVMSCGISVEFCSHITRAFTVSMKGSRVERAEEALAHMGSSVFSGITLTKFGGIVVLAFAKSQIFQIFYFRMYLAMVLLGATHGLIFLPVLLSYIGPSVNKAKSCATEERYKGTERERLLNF

CC(C)CCC[C@@H](C)[C@H]1CC[C@H]2[C@@H]3C(=O)C=C4C[C@@H](O)CC[C@]4(C)[C@H]3CC[C@]12C [7-ketocholesterol]
competition with 50 nM 3H-cholesterol on purified protein (LAMP2 [1]): 7-ketocholesterol (Figure 2D), but not cholesterol sulfate (Figure 2A), compete with ^3H-cholesterol for binding to LAMP2 protein

CC(C)C(O)CC[C@@H](C)[C@H]1CC[C@H]2[C@@H]3CC=C4C[C@@H](O)CC[C@]4(C)[C@H]3CC[C@]12C (stereo partly shown) [24-HC, 24-hydroxycholesterol]
single-concentration (30 μM) competition with 3H-cholesterol on purified protein (LAMP2 [2]): ^3H-cholesterol binding was competed by unlabeled cholesterol, 24-hydroxycholesterol, but not cholesterol sulfate (Figure 1G)

C[C@H](CCCC(C)(C)O)[C@H]1CC[C@H]2[C@@H]3CC=C4C[C@@H](O)CC[C@]4(C)[C@H]3CC[C@]12C [25-hydroxycholesterol]
direct 3H-25-hydroxycholesterol binding to purified protein; competition with 3H (LAMP2 [3]): LAMP2 also bound ^3H-25-hydroxycholesterol with similar apparent affinity as cholesterol; binding was competed by excess cold 25-hydroxycholesterol

CC(C)CCC[C@@H](C)[C@H]1CC[C@H]2[C@@H]3CC=C4C[C@@H](O)CC[C@]4(C)[C@H]3CC[C@]12C [cholesterol]
3H-cholesterol binding to purified His-tagged protein on Ni-NTA, with cold compe (LAMP2 [4]): Soluble, purified, LAMP1 and LAMP2 proteins appeared to bind ^3H-cholesterol saturably
3H-cholesterol binding to purified His-tagged protein on Ni-NTA (LAMP1): Soluble, purified, LAMP1 and LAMP2 proteins appeared to bind ^3H-cholesterol saturably

full length, soluble human LAMP2 (1-375) (from UniProt P13473 29-375) (domain or fragment)
pKd [5]: 8.22
pKd (AF647 labeled-NPC2): 6.91
